Read-outs that look alike come from different tables or passages of the source.
Assays:
U937 cells = assay: Cell growth inhibitory effect, U937 cells (Cell counting Kit-8, 72 hours); assay type: cell-based; conditions: Homo sapiens, U-937, BCR-ABL negative U937 cells, WST-8 absorbance
Protocol: The plate was incubated in a CO2 incubator overnight. […] The plate was incubated in a CO2 incubator. After 72 hours, 20 μl

K562 cells = assay: Cell growth inhibitory effect, K562 cells (Cell counting Kit-8, 72 hours); conditions: for IC50: Homo sapiens, K562, 72 h, read-out: K562 cells (IC50 value: μM); for Ratio (U937 cells/K562 cells): IC50 U937 cells / IC50 K562 cells;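 on all read-outs here: Read-out is formazan absorbance at 450 nm from WST-8 reduction after a 3 h color reaction, with K562 and U937 cells grown in 96-well plates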
Protocol: of Cell counting Kit-8 (5 mmol/l WST-8, 0.2 mmol/1 1-Methoxy PMS, 150 mmol/l NaCl) (manufactured by Dojindo) was added to each well. After reaction for color development in a CO2 incubator for 3 hours, an absorbance of formazan, generated by reduction of WST-8 was determined at 450 nm using Multi-level counter ARVOsx (manufactured by Wallac).
K562 cells and U937 cells (purchased from American Type Culture Collection) were cultured in a RPMI-1640 medium (manufactured by Sigma) containing 10% (v/v) fetal calf serum (FCS) (manufactures by Sigma) (RPMI-1640/FCS). K562 cells and U937 cells were seeded at a density of 5000 cells/100 μl/well and 4000 cells/100 μl/well in each of 96-hole-plate (manufactured by costar), respectively. The plate was incubated in a CO2 incubator overnight. […] The resulting solution was diluted 500 times in a RPMI-1640/FCS medium and then 100 μl of the diluent was added in a well. The plate was incubated in a CO2 incubator. After 72 hours, 20 μl

[1] = continuation of Table 3, read-out: U937 cells (IC50 value: nμM)
[2] = read-out: U937 cells (IC50 value: μM)

| SMILES | IC50 (U937 cells; [1]) | melting point | IC50 (K562 cells) | IC50 (U937 cells; [2]) | Ratio (U937 cells/K562 cells) (K562 cells) |
| --- | --- | --- | --- | --- | --- |
| CCN1CCN(Cc2ccc(C(=O)Nc3ccc(C)c(Nc4cc(-c5cncnc5)ccn4)c3)cc2C(F)(F)F)CC1.Cl [Example 25, 4-(4-ethylpiperazin-1-ylmethyl)-3-trifluoromethyl-N-{4-methyl-3-[4-(5-pyrimidinyl)pyridin-2-ylamino]phenyl}benzamide hydrochloride] | 3.8 µM | 254 to 256 °C (dec.) | 0.0018 µM | – | 2111 |
| Cc1ccc(NC(=O)c2ccc(CN3CC[C@H](CN(C)C)C3)c(C(F)(F)F)c2)cc1Nc1nccc(-c2cncnc2)n1.Cl [Example 79, 4-[(R)-3-(dimethylaminomethyl)pyrrolidin-1-ylmethyl]-3-trifluoromethyl-N-{4-methyl-3-[4-(5-pyrimidinyl)pyrimidin-2-ylamino]phenyl}benzamide hydrochloride] | 20 µM | 114 to 122 °C (dec.) | 0.0059 µM | – | 4348 |
| Cc1ccc(NC(=O)c2ccc(CN3CCN(C)[C@@H](C)C3)c(C(F)(F)F)c2)cc1Nc1nccc(-c2cncnc2)n1.Cl [Example 69, (−)-4-((S)-3,4-dimethylpiperazin-1-ylmethyl)-3-trifluoromethyl-N-{4-methyl-3-[4-(5-pyrimidinyl)pyrimidin-2-ylamino]phenyl}benzamide hydrochloride] | 10 µM | 187 to 193 °C | 0.0022 µM | – | 4545 |
| Cc1ccc(NC(=O)c2ccc(CN3CC(N(C)C)C3)c(C(F)(F)F)c2)cc1Nc1nccc(-c2cncnc2)n1.Cl [Example 77, 4-[3-(dimethylamino)azetidin-1-ylmethyl]-3-trifluoromethyl-N-{4-methyl-3-[4-(5-pyrimidinyl)pyrimidin-2-ylamino]phenyl}benzamide hydrochloride] | > 100 µM | 159 to 167 °C (dec.) | 0.018 µM | – | >13699 |
| Cc1ccc(NC(=O)c2ccc(CN3CCN(C)CC3)c(C(F)(F)F)c2)cc1Nc1nc(-c2ccncc2)cs1.Cl [Example 75, 4-(4-methylpipiperazin-1-ylmethyl)-3-trifluoromethyl-N-{4-methyl-3-[4-(4-pyridyl)thiazol-2-ylamino]phenyl}benzamide hydrochloride] | 2.7 µM | 186 to 188 °C | 0.0059 µM | – | 458 |
| Cc1ccc(NC(=O)c2ccc(CN3CCN(C)CC3)c(C(F)(F)F)c2)cc1Nc1cc(-c2cccnc2)ncn1.Cl [Example 31, 4-(1-methylpiperazin-4-ylmethyl)-3-trifluoromethyl-N-{4-methyl-3-[6-(3-pyridyl)pyrimidin-4-ylamino]phenyl}benzamide hydrochloride] | 2.1 µM | 190 to 194 °C (dec.) | 0.0069 µM | – | 304 |
| CCN1CCN(Cc2ccc(C(=O)Nc3ccc(C)c(Nc4cc(-c5cccnc5)ccn4)c3)cc2C(F)(F)F)CC1.Cl [Example 27, 4-(4-ethylpiperazin-1-ylmethyl)-3-trifluoromethyl-N-{4-methyl-3-[4-(3-pyridyl)pyridin-2-ylamino]phenyl}benzamide hydrochloride] | 2.6 µM | 230 to 235 °C (dec.) | 0.0025 µM | – | 1040 |
| Cc1ccc(NC(=O)c2ccc(CC3CCN(C)CC3)c(C(F)(F)F)c2)cc1Nc1nccc(-c2cncnc2)n1.Cl [Example 8, 4-(1-methylpiperidin-4-ylmethyl)-3-trifluoromethyl-N-{4-methyl-3-[4-(5-pyrimidinyl)pyrimidin-2-ylamino]phenyl}benzamide hydrochloride] | – | 227 to 231 °C (dec.) | 0.00098 µM | 4.6 µM | 4694 |
| Cc1ccc(NC(=O)c2ccc(CN3CCN(CCF)CC3)c(C(F)(F)F)c2)cc1Nc1nccc(-c2cncnc2)n1.Cl [Example 35, 4-[4-(2-fluoroethyl)piperazin-1-ylmethyl]-3-trifluoromethyl-N-{4-methyl-3-[4-(5 yrimidinyl)pyrimidin-2-ylamino]phenyl}benzamide hydrochloride] | 11 µM | 213 to 233 °C (dec.) | 0.0034 µM | – | 3235 |
| Cc1ccc(NC(=O)c2cc(Cl)c(CN3CC[C@H](N(C)C)C3)c(Cl)c2)cc1Nc1nccc(-c2cncnc2)n1.Cl [Example 12, (−)-3,5-dichloro-4-[(S)-3-(dimethylamino)pyrrolidin-1-ylmethyl]-N-{4-methyl-3-[4-(5-pyrimidinyl)pyrimidin-2-ylamino]phenyl}benzamide hydrochloride] | – | 161 to 170 °C (dec.) | 0.0056 µM | 4.7 µM | 839 |
| Cc1ccc(NC(=O)c2ccc(CN3CCN(Cc4oc(=O)oc4C)CC3)c(C(F)(F)F)c2)cc1Nc1nccc(-c2cncnc2)n1.Cl [Example 73, 4-{4-[(5-methyl-2-oxo-1,3-dioxol-4-yl)methyl]piperazin-1-ylmethyl}-3-trifluoromethyl-N-{4-methyl-3-[4-(5-pyrimidinyl)pyrimidin-2-ylamino]phenyl}benzamide hydrochloride] | 9.7 µM | 218 to 226 °C (dec.) | 0.0023 µM | – | 4217 |

Further compounds by falling IC50 (K562 cells), results first:

| IC50 (U937 cells; [1]) | melting point | IC50 (K562 cells) | IC50 (U937 cells; [2]) | SMILES | Ratio (U937 cells/K562 cells) (K562 cells) |
| --- | --- | --- | --- | --- | --- |
| 6.5 µM | 164 to 174 °C (dec.) | 0.0077 µM | – | Cc1ccc(NC(=O)c2ccc(CN3C[C@@H](C)[C@H](N(C)C)C3)c(C(F)(F)F)c2)cc1Nc1nccc(-c2cncnc2)n1.Cl [Example 67, (−)-4-[(3S,4R)-3-(dimethylamino)-4-methylpyrrolidin-1-ylmethyl]-3-trifluoromethyl-N-{4-methyl-3-[4-(5-pyrimidinyl)pyrimidin-2-ylamino]phenyl}benzamide hydrochloride] | 844 |
| 6.7 µM | 186 to 194 °C | 0.0061 µM | – | Cc1ccc(NC(=O)c2ccc(CN3CCN(C)[C@H](C)C3)c(C(F)(F)F)c2)cc1Nc1nccc(-c2cncnc2)n1.Cl [Example 71, (+)-4-((R)-3,4-dimethylpiperazin-1-ylmethyl)-3-trifluoromethyl-N-{4-methyl-3-[4-(5-pyrimidinyl)pyrimidin-2-ylamino]phenyl}benzamide hydrochloride] | 1098 |
| 9.4 µM | 168 to 171 °C | 0.0047 µM | – | Cc1ccc(NC(=O)c2ccc(CN3CC[C@H](N4CCCC4)C3)c(C(F)(F)F)c2)cc1Nc1nccc(-c2cncnc2)n1.Cl [Example 58, (−)-4-[(S)-3-(1-pyrrolidinyl)pyrrolidin-1-ylmethyl]-3-trifluoromethyl-N-{4-methyl-3-[4-(5-pyrimidinyl)pyrimidin-2-ylamino]phenyl}benzamide hydrochloride] | 2000 |
| 15 µM | 205 to 208 °C | 0.0031 µM | – | Cc1ccc(NC(=O)c2ccc(CN3CCNC(C(N)=O)C3)c(C(F)(F)F)c2)cc1Nc1nccc(-c2cncnc2)n1.Cl (centres unmarked) [Example 45, 4-(3-carbamoylpiperazin-1-ylmethyl)-3-trifluoromethyl-N-{4-methyl-3-[4-(5-pyrimidinyl)pyrimidin-2-ylamino]phenyl}benzamide hydrochloride] | 4839 |
| – | 264 °C (dec.) | 0.0028 µM | 15 µM | Cc1ccc(NC(=O)c2ccc(CN3CCN(C)CC3)c(C(F)F)c2)cc1Nc1nccc(-c2cncnc2)n1.Cl [Example 2, 3-difluoromethyl-4-(4-methylpiperazin-1-ylmethyl)-N-{4-methyl-3-[4-(5-pyrimidinyl)pyrimidin-2-ylamino]phenyl}benzamide hydrochloride] | 5357 |
| – | 253 to 255 °C (dec.) | 0.002 µM | 28 µM | CCc1cc(C(=O)Nc2ccc(C)c(Nc3nccc(-c4cncnc4)n3)c2)ccc1CN1CCN(C)CC1.Cl [Example 4, 3-ethyl-4-(4-methylpiperazin-1-ylmethyl)-N-{4-methyl-3-[4-(5-pyrimidinyl)pyrimidin-2-ylamino]phenyl}benzamide hydrochloride] | 14000 |
| 10 µM | 248 to 255 °C (dec.) | 0.0014 µM | – | Cc1ccc(NC(=O)c2ccc(CN3CCN(CCO)CC3)c(C(F)(F)F)c2)cc1Nc1nccc(-c2cncnc2)n1.Cl [Example 37, 4-[4-(2-hydroxyethyl)piperazin-1-ylmethyl]-3-trifluoromethyl-N-{4-methyl-3-[4-(5-pyrimidinyl)pyrimidin-2-ylamino]phenyl}benzamide hydrochloride] | 7143 |
| 5 µM | 203 to 206 °C (dec.) | 0.0011 µM | – | Cc1ccc(NC(=O)c2ccc(CN3CCN(C)CC3)c(C(F)(F)F)c2)cc1Nc1cc(-c2cncnc2)ccn1.Cl [Example 23, 4-(4-methylpiperazin-1-ylmethyl)-3-trifluoromethyl-N-{4-methyl-3-[4-(5-primidinyl)pyridin-2-ylamino]phenyl}benzamide hydrochloride] | 4545 |
| – | 256 to 259 °C (dec.) | 0.0011 µM | 4.1 µM | CCN1CCN(Cc2ccc(C(=O)Nc3ccc(C)c(Nc4nccc(-c5cncnc5)n4)c3)cc2C(F)(F)F)CC1.Cl [Example 16, 4-(4-ethylpiperazin-1-ylmethyl)-3-trifluoromethyl-N-{4-methyl-3-[4-(5-pyrimidinyl)pyrimidin-2-ylamino]phenyl}benzamide hydrochloride] | 3727 |

— patent US7728131B2, “Amide derivative and medicine” (Nippon Shinyaku Co., Ltd., priority 2003, dated 2010)
